Source: ChEMBL document CHEMBL1759887, “Discovery of indole alkaloids with cannabinoid CB1 receptor antagonistic activity” (Bioorg Med Chem Lett, 2011)

These molecules were tested against Cannabinoid receptor 1 (Homo sapiens, UniProt P21554) (assay: Antagonist activity at CB1 receptor transfected in CHO cells expressing apoaequorin as a reporter for G-protein-coupled receptor-mediated calcium signaling by bioluminescence assay).
Cannabinoid receptor 1, sequence (P21554 whole entry): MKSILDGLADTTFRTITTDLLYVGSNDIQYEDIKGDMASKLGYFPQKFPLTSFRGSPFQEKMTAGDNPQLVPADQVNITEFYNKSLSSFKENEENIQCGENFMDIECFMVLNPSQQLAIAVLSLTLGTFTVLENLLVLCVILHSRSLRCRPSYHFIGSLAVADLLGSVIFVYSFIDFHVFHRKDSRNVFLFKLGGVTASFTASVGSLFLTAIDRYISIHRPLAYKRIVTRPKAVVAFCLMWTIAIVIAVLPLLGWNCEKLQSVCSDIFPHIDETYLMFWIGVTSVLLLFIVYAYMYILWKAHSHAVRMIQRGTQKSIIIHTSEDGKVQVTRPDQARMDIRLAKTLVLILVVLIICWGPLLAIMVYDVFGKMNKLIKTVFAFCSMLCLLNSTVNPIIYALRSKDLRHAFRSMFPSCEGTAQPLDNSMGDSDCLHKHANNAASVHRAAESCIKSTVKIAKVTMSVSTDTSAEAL
Type: functional, cell-based
Work on CC[C@H]1C[C@@H]2C[C@@]3(C(=O)OC)c4[nH]c5ccc(OC)cc5c4[C@@H]4CN([C@@H]13)[C@H]2O4 yielded an IC50 of 199 nM.
For CC[C@H]1C[C@@H]2C[C@@]3(C(=O)OC)c4[nH]c5ccc(OC)cc5c4[C@H]4O[C@@H]2N([C@@H]4O)[C@@H]13, the IC50 was 141 nM.
CC=C1CN(C)C2Cc3c([nH]c4ccccc34)C(c3cc4[nH]c5c(c4cc3OC)CCN3CC4CC(CC)C3C5(C(=O)OC)C4)CC1C2C(=O)OC (stereo not drawn) [VOACAMINE] showed an IC50 of 41 nM.
